Test results reported in patent US9139551B2, “Preparation of a new class of water-soluble ammonium 2,3-dihydroxy-5-((2R,3R)-3,5,7-trihydroxy-4-oxochroman-2-yl) phenolates and their biological activity of alcohol elimination” (priority 2014, dated 2015).
Read-outs that look alike come from different tables or passages of the source.

Assay: Acute toxicity, intraperitoneal administration (mortality, LD50, body weight, dietary)
Assay type: in vivo, mice
Details: both sexes, mouse, in vivo, ip, mice, i.p., observed 7 days
Experimental: Acute Toxicity • Compounds PDHM/TDHM.
140 mice were divided into 7 groups (n=20), each group include 10 males and 10 females, they were treated with different concentrations of dosages and observed for 7 days. Specific experimental groups and experimental results were noted below. Note: Section 1-6 group compound are PDHM groups, and group 7 is a negative control group.
140 mice were divided into 7 groups (n=20), each group include 10 males and 10 females, they were treated with different concentrations of dosage and observed for 7 days. Note: Section 1-6 group compound are PDHM groups, and group 7 is a negative control group.

**Q.** With `O=C1c2c(O)cc(O)cc2O[C@H](c2cc(O)c(O)c(O)c2)[C@H]1O` [PDHM, piperidinium 2,3-dihydroxy-5-((2R,3R)-3,5,7-trihydroxy-4-oxochroman-2-yl)phenolate] as the molecule, how does the LD50 at 7 days (read-out: 95% confidence limit of LD50) read?
**A.** 743 to 755 mg/kg

**Q.** And the LD50 at 7 days (read-out: LD50)?
**A.** 902 mg/kg
